Source: PubChem BioAssay AID1963841 (Molecular Pharmacology Branch, DTP, NCI, 2024)

Test system: 439559-082-T-J2-PDC spheroid viability
Assay: Anticancer human tumor 439559-082-T-J2-PDC patient-derived colon adenocarcinoma cell line growth inhibition [POLQ]
Conditions: spheroids with HUVEC and MSC; for IC50: curve of first compound; for viability, T/C: stronger effect = lower value
Outline: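 Patient-derived tumour cells were co-cultured with HUVEC and mesenchymal stem cells as multicellular spheroids at 37 °C. They were treated with POLQ inhibitors (novobiocin, ART-558, RP6685) alone or combined with other agents. Top concentrations were at or near clinical Cmax (otherwise 10 microM; SN-38 at 1 microM), decreasing in half-log steps.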

[1] = second compound 0.0316 µM, first compound 0.0316 µM
[2] = second compound 0.0316 µM, first compound 0.1 µM
[3] = second compound 0.0316 µM, first compound 0.316 µM
[4] = second compound 0.0316 µM, first compound 1 µM
[5] = second compound 0.1 µM, first compound 0.0316 µM
[6] = second compound 0.1 µM, first compound 0.1 µM
[7] = second compound 0.1 µM, first compound 0.316 µM
[8] = second compound 0.1 µM, first compound 1 µM
[9] = second compound 0.316 µM, first compound 0.0316 µM
[10] = second compound 0.316 µM, first compound 0.1 µM
[11] = second compound 0.316 µM, first compound 0.316 µM
[12] = second compound 0.316 µM, first compound 1 µM
[13] = second compound 1 µM, first compound 0.0316 µM
[14] = second compound 1 µM, first compound 0.1 µM
[15] = second compound 1 µM, first compound 0.316 µM
[16] = second compound 1 µM, first compound 1 µM
[17] = second compound 3.16 µM, first compound 0.0316 µM
[18] = second compound 3.16 µM, first compound 0.1 µM
[19] = second compound 3.16 µM, first compound 0.316 µM
[20] = second compound 3.16 µM, first compound 1 µM
[21] = second compound 10 µM, first compound 0.0316 µM
[22] = second compound 10 µM, first compound 0.1 µM
[23] = second compound 10 µM, first compound 0.316 µM
[24] = second compound 10 µM, first compound 1 µM
[25] = second compound 0.0316 µM, first compound 3.16 µM
[26] = second compound 0.0316 µM, first compound 10 µM
[27] = second compound 0.1 µM, first compound 3.16 µM
[28] = second compound 0.1 µM, first compound 10 µM
[29] = second compound 0.316 µM, first compound 3.16 µM
[30] = second compound 0.316 µM, first compound 10 µM
[31] = second compound 1 µM, first compound 3.16 µM
[32] = second compound 1 µM, first compound 10 µM
[33] = second compound 3.16 µM, first compound 3.16 µM
[34] = second compound 3.16 µM, first compound 10 µM
[35] = second compound 10 µM, first compound 3.16 µM
[36] = second compound 10 µM, first compound 10 µM
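Also: spheroids exposed to compounds for seven days before readout.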
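For viability, T/C in this document: 100% = DMSO vehicle control viability.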

Q: For CCc1c2c(nc3ccc(O)cc13)-c1cc3c(c(=O)n1C2)COC(=O)[C@]3(O)CC + Cc1cccc(N(C)C(=O)C2C(O)CCN2c2nc(C)cc(C(F)(F)F)c2C#N)c1, which IC50 (second compound 0.0316 µM) is on record?
A: 739 nM

Q: What about the IC50 (second compound 0.1 µM) of the same compound?
A: 705 nM

Q: And the IC50 (second compound 0.316 µM)?
A: 698 nM

Q: And the IC50 (second compound 1 µM)?
A: 708 nM

Q: What about the IC50 (second compound 3.16 µM) of the same compound?
A: 968 nM

Q: And the IC50 (second compound 10 µM)?
A: 702 nM

Q: And the viability, T/C (second compound 0.0316 µM, first compound 0.00316 µM)?
A: 92.9%

Q: And the viability, T/C (second compound 0.0316 µM, first compound 0.01 µM)?
A: 82.2%

Q: What about the viability, T/C [1] of the same compound?
A: 70.8%

Q: And the viability, T/C [2]?
A: 74.7%

Q: And the viability, T/C [3]?
A: 64%

Q: What about the viability, T/C [4] of the same compound?
A: 43.2%

Q: What about the viability, T/C (second compound 0.1 µM, first compound 0.00316 µM) of the same compound?
A: 90.9%

Q: And the viability, T/C (second compound 0.1 µM, first compound 0.01 µM)?
A: 87%

Q: What about the viability, T/C [5] of the same compound?
A: 74.5%

Q: And the viability, T/C [6]?
A: 68.3%

Q: And the viability, T/C [7]?
A: 65.7%

Q: And the viability, T/C [8]?
A: 42.8%

Q: And the viability, T/C (second compound 0.316 µM, first compound 0.00316 µM)?
A: 95.3%

Q: And the viability, T/C (second compound 0.316 µM, first compound 0.01 µM)?
A: 82.2%

Q: What about the viability, T/C [9] of the same compound?
A: 76.3%

Q: And the viability, T/C [10]?
A: 70.6%

Q: And the viability, T/C [11]?
A: 63%

Q: What about the viability, T/C [12] of the same compound?
A: 42.9%

Q: And the viability, T/C (second compound 1 µM, first compound 0.00316 µM)?
A: 90.9%

Q: What about the viability, T/C (second compound 1 µM, first compound 0.01 µM) of the same compound?
A: 90.9%

Q: And the viability, T/C [13]?
A: 74%

Q: What about the viability, T/C [14] of the same compound?
A: 67.1%

Q: What about the viability, T/C [15] of the same compound?
A: 62.5%

Q: And the viability, T/C [16]?
A: 44.9%

Q: And the viability, T/C (second compound 3.16 µM, first compound 0.00316 µM)?
A: 90.3%

Q: And the viability, T/C (second compound 3.16 µM, first compound 0.01 µM)?
A: 76.8%

Q: And the viability, T/C [17]?
A: 72.1%

Q: What about the viability, T/C [18] of the same compound?
A: 71%

Q: What about the viability, T/C [19] of the same compound?
A: 62.8%

Q: What about the viability, T/C [20] of the same compound?
A: 47.2%

Q: What about the viability, T/C (second compound 10 µM, first compound 0.00316 µM) of the same compound?
A: 80.6%

Q: What about the viability, T/C (second compound 10 µM, first compound 0.01 µM) of the same compound?
A: 76.3%

Q: What about the viability, T/C [21] of the same compound?
A: 66.9%

Q: What about the viability, T/C [22] of the same compound?
A: 68.4%

Q: And the viability, T/C [23]?
A: 60.5%

Q: And the viability, T/C [24]?
A: 44.9%

Q: How did the IC50 (second compound 0.0316 µM) turn out when Nc1ccn(C2OC(CO)C(O)C2(F)F)c(=O)n1 (stereo unspecified) + COC1C(OC(N)=O)C(O)C(Oc2ccc3c(O)c(NC(=O)c4ccc(O)c(CC=C(C)C)c4)c(=O)oc3c2C)OC1(C)C was run?
A: 488 nM

Q: What about the IC50 (second compound 0.1 µM) of the same compound?
A: 477 nM

Q: And the IC50 (second compound 0.316 µM)?
A: 422 nM

Q: And the IC50 (second compound 1 µM)?
A: 395 nM

Q: What about the IC50 (second compound 3.16 µM) of the same compound?
A: 450 nM

Q: What about the IC50 (second compound 10 µM) of the same compound?
A: 411 nM

Q: What about the viability, T/C [1] of the same compound?
A: 81.3%

Q: And the viability, T/C [2]?
A: 74.4%

Q: What about the viability, T/C [3] of the same compound?
A: 55.7%

Q: And the viability, T/C [4]?
A: 39.5%

Q: And the viability, T/C [25]?
A: 29.8%

Q: What about the viability, T/C [26] of the same compound?
A: 25.6%

Q: What about the viability, T/C [5] of the same compound?
A: 82.2%

Q: What about the viability, T/C [6] of the same compound?
A: 74.3%

Q: What about the viability, T/C [7] of the same compound?
A: 54.4%

Q: And the viability, T/C [8]?
A: 39.4%

Q: What about the viability, T/C [27] of the same compound?
A: 33%

Q: What about the viability, T/C [28] of the same compound?
A: 25.3%

Q: And the viability, T/C [9]?
A: 86.1%

Q: What about the viability, T/C [10] of the same compound?
A: 76.2%

Q: And the viability, T/C [11]?
A: 52.8%

Q: What about the viability, T/C [12] of the same compound?
A: 37.5%

Q: What about the viability, T/C [29] of the same compound?
A: 33%

Q: What about the viability, T/C [30] of the same compound?
A: 25.6%

Q: And the viability, T/C [13]?
A: 81.2%

Q: What about the viability, T/C [14] of the same compound?
A: 77.7%

Q: What about the viability, T/C [15] of the same compound?
A: 49.2%

Q: And the viability, T/C [16]?
A: 39.5%

Q: What about the viability, T/C [31] of the same compound?
A: 32.6%

Q: And the viability, T/C [32]?
A: 25%

Q: What about the viability, T/C [17] of the same compound?
A: 84.5%

Q: And the viability, T/C [18]?
A: 73.8%

Q: And the viability, T/C [19]?
A: 54.7%

Q: What about the viability, T/C [20] of the same compound?
A: 38.5%

Q: And the viability, T/C [33]?
A: 31.2%

Q: And the viability, T/C [34]?
A: 26.7%

Q: And the viability, T/C [21]?
A: 83.1%

Q: And the viability, T/C [22]?
A: 70%

Q: And the viability, T/C [23]?
A: 53%

Q: What about the viability, T/C [24] of the same compound?
A: 38.8%

Q: And the viability, T/C [35]?
A: 31.6%

Q: And the viability, T/C [36]?
A: 26%

Q: Which IC50 (second compound 0.0316 µM) does the source give for Nc1ccn(C2OC(CO)C(O)C2(F)F)c(=O)n1 (stereo unspecified) + Cc1cccc(N(C)C(=O)C2C(O)CCN2c2nc(C)cc(C(F)(F)F)c2C#N)c1 here?
A: 923 nM

Q: What about the IC50 (second compound 0.1 µM) of the same compound?
A: 952 nM

Q: What about the IC50 (second compound 0.316 µM) of the same compound?
A: 829 nM

Q: What about the IC50 (second compound 1 µM) of the same compound?
A: 676 nM

Q: What about the IC50 (second compound 3.16 µM) of the same compound?
A: 802 nM

Q: What about the IC50 (second compound 10 µM) of the same compound?
A: 829 nM

Q: And the viability, T/C [1]?
A: 77.8%

Q: And the viability, T/C [2]?
A: 71.7%

Q: And the viability, T/C [3]?
A: 60.6%

Q: And the viability, T/C [4]?
A: 49.9%

Q: What about the viability, T/C [25] of the same compound?
A: 37.5%

Q: What about the viability, T/C [26] of the same compound?
A: 30.6%

Q: And the viability, T/C [5]?
A: 85.4%

Q: And the viability, T/C [6]?
A: 76.9%

Q: And the viability, T/C [7]?
A: 63.8%

Q: What about the viability, T/C [8] of the same compound?
A: 48.5%

Q: And the viability, T/C [27]?
A: 39.8%

Q: And the viability, T/C [28]?
A: 32.1%

Q: What about the viability, T/C [9] of the same compound?
A: 82.5%

Q: What about the viability, T/C [10] of the same compound?
A: 75.8%

Q: What about the viability, T/C [11] of the same compound?
A: 63.3%

Q: And the viability, T/C [12]?
A: 47.5%

Q: And the viability, T/C [29]?
A: 35.4%

Q: And the viability, T/C [30]?
A: 29.6%

Q: What about the viability, T/C [13] of the same compound?
A: 83.2%

Q: And the viability, T/C [14]?
A: 76.1%

Q: What about the viability, T/C [15] of the same compound?
A: 61.3%

Q: And the viability, T/C [16]?
A: 43.1%

Q: And the viability, T/C [31]?
A: 37.7%

Q: And the viability, T/C [32]?
A: 30.9%

Q: What about the viability, T/C [17] of the same compound?
A: 79.8%

Q: And the viability, T/C [18]?
A: 69.3%

Q: What about the viability, T/C [19] of the same compound?
A: 59.4%

Q: And the viability, T/C [20]?
A: 47.1%

Q: What about the viability, T/C [33] of the same compound?
A: 38.3%

Q: What about the viability, T/C [34] of the same compound?
A: 31.4%

Q: What about the viability, T/C [21] of the same compound?
A: 80.3%

Q: What about the viability, T/C [22] of the same compound?
A: 70.6%

Q: And the viability, T/C [23]?
A: 57.1%

Q: What about the viability, T/C [24] of the same compound?
A: 49.5%

Q: And the viability, T/C [35]?
A: 40%

Q: What about the viability, T/C [36] of the same compound?
A: 35%
